Experimental data as given in patent US20160009725A1, “PYRROLO- AND PYRAZOLO-TRIAZOLODIAZEPINES AS BET-PROTEIN INHIBITORS FOR TREATING HYPERPROLIFERATIVE DISEASES” (BAYER PHARMA AKTIENGESELLSCHAFT, priority 2013, published 2016).
Like-named read-outs stand apart in the source and are kept apart here.

Columns and labels:
BRD4 (BD1) = target: T1, BRD4 (BD1) (Homo sapiens, UniProt O60885); experiment: Binding assay BRD4/acetylated peptide H4 (TR-FRET protein-protein interaction assay)
T1 construct: N-terminally His6-tagged BRD4 (BD1) (amino acids 67-152, longer constructs also being possible, preferably amino acids 44-168); made in house; host or cells: E. coli
From the text: To assess the BRD4 binding strength of the substances described in this application, the ability thereof to inhibit the interaction between BRD4 (BD1) and acetylated histone H4 in a dose-dependent manner was quantified. For this purpose, a time-resolved fluorescence resonance energy transfer (TR-FRET) assay was used, which measures the binding between N-terminally His6-tagged BRD4 (BD1) (amino acids 67-152, longer constructs also being possible, preferably amino acids 44-168) and a synthetic acetylated histone H4 (Ac-H4) peptide with sequence […]-biotin. The recombinant BRD4 protein produced in-house according to Filippakopoulos et al., Nature, 2010, 468:1119-1123 was expressed in E. coli and purified by means of (Ni-NTA) affinity and (Sephadex G-75) size exclusion chromatography. The Ac-H4 peptide can be purchased, for example, from Biosyntan (Berlin, Germany). […] For this purpose, 100-fold concentrated solutions in DMSO were prepared by serial dilutions (1:3.4) of a 2 mM stock solution into a clear, 384-well microtitre plate (Greiner Bio-One, Frickenhausen, Germany). From this, 50 nl were transferred into a black test plate (Greiner Bio-One, Frickenhausen, Germany). […] This was followed by a 10-minute incubation step at 22° C. for the pre-equilibration of putative complexes between BRD4 and the substances. […] The mixture was then incubated in the dark at 22° C. for one hour and then at 4° C. for at least 3 hours and for no longer than overnight. The formation of BRD4/Ac-H4 complexes was determined by the measurement of the resonance energy transfer from the streptavidin-Eu cryptate to the anti-6His-XL665 antibody present in the reaction. For this purpose, the fluorescence emission was measured at 620 nm and 665 nm after excitation at 330-350 nm in a TR-FRET measuring instrument, for example a Rubystar or Pherastar (both from BMG Lab Technologies, Offenburg, Germany) or a Viewlux (Perkin-Elmer). The ratio of the emissions at 665 nm and at […] was taken as an indicator of the amount of BRD4/Ac-H4 complexes formed. The data (ratios) obtained were normalized, with 0% inhibition corresponding to the mean from the measurements for a set of controls (typically 32 data points) in which all the reagents were present. In these, in place of test substances, 50 nl of DMSO (100%) were used Inhibition of 100% corresponded to the mean from the measurements for a set of controls (typically 32 data points) in which all the reagents except BRD4 were present. The IC50 was determined by regression analysis based on a 4-parameter equation (minimum, maximum, IC50, Hill; […])).

MOLM-13 cells = experiment: Cell proliferation assay (alamarBlue), MOLM-13; type: cell-based; conditions: Homo sapiens, acute myeloid leukaemia, 96 hours incubation
Experimental: (§1) In accordance with the invention, the ability of the substances to inhibit cell proliferation was determined Cell viability was determined by means of the alamarBlue® reagent (Invitrogen) in a Victor ×3 Multilabel Reader (Perkin Elmer). The excitation wavelength was 530 nm and the emission wavelength […].
The MOLM-13 cells (DSMZ, ACC 554) were sown at a concentration of 4000 cells/well in 100 μl of growth medium (RPMI1640, 10% FCS) on 96-well microtitre plates.
(§2) After overnight incubation at 37° C., the fluorescence values (CI values) were determined. Then the plates were treated with various substance dilutions (1E-5 M, 3E-6 M, 1E-6 M, 3E-7 M, 1E-7 M, 3E-8 M, 1E-8 M) and incubated at 37° C. over 96 (MOLM-13, B16F10, MDA-MB-431 cells), 120 (MOLP-8 cells) or 168 (LAPC-4 cells) hours. Subsequently, the fluorescence values were determined (CO values). For the data analysis, the CI values were subtracted from the CO values and the results were compared between cells which had been treated with various dilutions of the substance or only with buffer solution. The IC50 values (substance concentration needed for 50% inhibition of cell proliferation) were calculated therefrom.
(§3) The substances were tested in the cell lines in Table 1, which represent the indications specified by way of example: […]

LAPC-4 cells = experiment: Cell proliferation assay (alamarBlue), LAPC-4; type: cell-based; conditions: Homo sapiens, LAPC4, prostate cancer, 1 nM methyltrienolone, 168 hours incubation
Experimental: as §1
The LAPC-4 cells (ATCC, PTA-1441TM) were sown at a concentration of 4000 cells/well in 100 μl of growth medium (RPMI1640, 2 mM L-glutamine, 10% cFCS) on 96-well microtitre plates. One day later, the LAPC-4 cells were treated with 1 nM methyltrienolone and various substance dilutions.
as §2, §3

B16F10 cells = experiment: Cell proliferation assay (alamarBlue), B16F10; type: cell-based; conditions: Mus musculus, B16-F10, melanoma (BRAF wild-type), 96 hours incubation
Experimental: as §1
The B16F10 cells (ATCC, CRL-6475) were sown at a concentration of 300-500 cells/well in 100 μl of growth medium (DMEM with phenol red, 10% FCS) on 96-well microtitre plates.
as §2, §3

MDA-MB-231 cells = experiment: Cell proliferation assay (alamarBlue), MDA-MB-231; type: cell-based; conditions: Homo sapiens, mammary carcinoma, 96 hours incubation, read-out: Breast MDA-MB-231 IC50
Experimental: as §1
The MDA-MB-231 cells (DSMZ, ACC 732) were sown at a concentration of 4000 cells/well in 100 μl of growth medium (DMEM/Ham's F12 medium, 10% FCS) on 96-well microtitre plates.
as §2, §3

MOLP-8 cells = experiment: Cell proliferation assay (alamarBlue), MOLP-8; type: cell-based; conditions: Homo sapiens, multiple myeloma, 120 hours incubation
Experimental: as §1
The MOLP-8 cells (DSMZ, ACC 569) were sown at a concentration of 4000 cells/well in 100 μl of growth medium (RPMI1640, 20% FCS) on 96-well microtitre plates.
as §2, §3

[1] = BRD4 (BD1) / acetylated histone H4 peptide, TR-FRET, read-out: IC50 (BRD4)

Row | SMILES | IC50 (BRD4 (BD1); [1]) [nM] | IC50 (MOLM-13 cells) [nM] | IC50 (LAPC-4 cells) [nM] | IC50 (B16F10 cells) [nM] | IC50 (BRD4 (BD1)) [nM] | IC50 (MDA-MB-231 cells) [nM] | IC50 (MOLP-8 cells) [nM]
1 | Cc1c2c(cn1C)-n1c(C)nnc1[C@H](CC(=O)N1CC3(COC3)C1)N=C2c1ccccc1 [Example 2, 2-(1,7,8-Trimethyl-6-phenyl-4,8-dihydropyrrolo[3,4-f][1,2,4]triazolo[4,3-a][1,4]diazepin-4-yl)-1-(2-oxa-6-azaspiro[3.3]hept-6-yl)ethan-1-one] | 140 | 900 | 920 | 2010 |  |  | 
2 | Cc1c2c(cn1C)-n1c(C)nnc1[C@H](CC(=O)N1CC3CCC(C1)O3)N=C2c1ccc(Cl)cc1 (single isomer, unassigned; (-)) [Example 8] | 190 | 750 | 540 |  |  |  | 
3 | Cc1c2c(cn1C)-n1c(C)nnc1[C@H](CC(=O)N1CCC3(COC3)C1)N=C2c1ccc(Cl)cc1 [Example 13, (−)-2-[(4S)-6-(4-Chlorophenyl)-1,7,8-trimethyl-4,8-dihydropyrrolo[3,4-f][1,2,4]triazolo[4,3-a][1,4]diazepin-4-yl]-1-(2-oxa-6-azaspiro[3.4]oct-6-yl)ethanone] | 70 | 410 | 230 |  |  |  | 
4 | Cc1c2c(cn1C)-n1c(C)nnc1[C@H](CC(=O)N1CC3CC1CO3)N=C2c1ccc(Cl)cc1 (stereo in doubt) [Example 7, (−)-2-[(4S)-6-(4-Chlorophenyl)-1,7,8-trimethyl-4,8-dihydropyrrolo[3,4-f][1,2,4]triazolo[4,3-a][1,4]diazepin-4-yl]-1-{(1S,4S)-2-oxa-5-azabicyclo[2.2.1]hept-5-yl}ethan-1-one] | 210 |  |  |  |  |  | 
5 | Cc1c2c(cn1C)-n1c(C)nnc1[C@H](CC(=O)N1CC3(COC3)C1)N=C2c1ccc(Cl)cc1 [Example 1, (−)-2-[(4S)-6-(4-Chlorophenyl)-1,7,8-trimethyl-4,8-dihydropyrrolo[3,4-f][1,2,4]triazolo-[4,3-a][1,4]diazepin-4-yl]-1-(2-oxa-6-azaspiro[3.3]hept-6-yl)ethan-1-one] | 150 | 710 | 680 | 1140 |  |  | 
6 | Cc1c2c(cn1C)-n1c(C)nnc1[C@H](CC(=O)N1CC3CCC(C3)C1)N=C2c1ccc(Cl)cc1 (single isomer, unassigned; (-)) [Example 10] | 310 | 1460 |  |  |  |  | 
7 | Cc1nnc2n1-c1cn(C)nc1C(c1ccc(Cl)cc1)=N[C@H]2CC(=O)N1CC2(CCS2(=O)=O)C1 [Example 15, 2-[(4S)-6-(4-Chlorophenyl)-1,8-dimethyl-4,8-dihydropyrazolo[3,4-f][1,2,4]triazolo[4,3-a][1,4]diazepin-4-yl]-1-(1,1-dioxido-1-thia-6-azaspiro[3.3]hept-6-yl)ethanone] | 800 | 2700 |  |  |  |  | 
8 | Cc1c2c(cn1C)-n1c(C)nnc1[C@H](CC(=O)N1CC3(CCS3(=O)=O)C1)N=C2c1ccc(Cl)cc1 [Example 3, (−)-2-[(4S)-6-(4-Chlorophenyl)-1,7,8-trimethyl-4,8-dihydropyrrolo[3,4-f][1,2,4]triazolo[4,3-a][1,4]diazepin-4-yl]-1-(1,1-dioxo-1λ^6-1-thia-6-azaspiro[3.3]hept-6-yl)ethan-1-one] |  | 110 | 110 | 160 | 20 | 300 | 140
9 | Cc1c2c(cn1C)-n1c(C)nnc1[C@H](CC(=O)N1CC3(CCOCC3)C1)N=C2c1ccc(Cl)cc1 [Example 11, (−)-2-[(4S)-6-(4-Chlorophenyl)-1,7,8-trimethyl-4,8-dihydropyrrolo[3,4-f][1,2,4]triazolo[4,3-a][1,4]diazepin-4-yl]-1-(7-oxa-2-azaspiro[3.5]non-2-yl)ethanone] | 690 |  |  |  |  |  | 
10 | Cc1c2c(cn1C)-n1c(C)nnc1[C@H](CC(=O)N1C3CCC1CC(=O)C3)N=C2c1ccc(Cl)cc1 (single isomer, unassigned; (-)) [Example 6] | 240 | 1240 | 520 | 890 |  |  | 
11 | Cc1c2c(cn1C)-n1c(C)nnc1[C@H](CC(=O)N1CCC3(CC1)COC3)N=C2c1ccc(Cl)cc1 [Example 12, (−)-2-[(4S)-6-(4-Chlorophenyl)-1,7,8-trimethyl-4,8-dihydropyrrolo[3,4-f][1,2,4]triazolo[4,3-a][1,4]diazepin-4-yl]-1-(2-oxa-7-azaspiro[3.5]non-7-yl)ethanone] | 120 | 480 |  |  |  |  | 
12 | Cc1nnc2n1-c1cn(C)nc1C(c1ccc(Cl)cc1)=N[C@H]2CC(=O)N1CC2(COC2)C1 [Example 4, 2-[(4S)-6-(4-Chlorophenyl)-1,8-dimethyl-4,8-dihydropyrazolo[3,4-f][1,2,4]triazolo[4,3-a][1,4]diazepin-4-yl]-1-(2-oxa-6-azaspiro[3.3]hept-6-yl)ethan-1-one] | 460 |  |  |  |  |  | 
13 | Cc1c2c(cn1C)-n1c(C)nnc1[C@H](CC(=O)N1CC3CCC1CC3)N=C2c1ccc(Cl)cc1 (single isomer, unassigned; (-)) [Example 14] | 100 | 690 | 520 |  |  |  | 
14 | Cc1c2c(cn1C)-n1c(C)nnc1[C@H](CC(=O)N1CCOC3(CCCCC3)C1)N=C2c1ccc(Cl)cc1 [Example 9, (−)-2-[(4S)-6-(4-Chlorophenyl)-1,7,8-trimethyl-4,8-dihydropyrrolo[3,4-f][1,2,4]triazolo[4,3-a][1,4]diazepin-4-yl]-1-(1-oxa-4-azaspiro[5.5]undec-4-yl)ethanone] | 80 | 1050 | 1070 |  |  |  | 
